These results are taken from ChEMBL document CHEMBL3045074, “Synthesis and anticonvulsant activity of novel quinazolin-4(3H)-one derived pyrazole analogs” (Med Chem Res, 2013).

The subject of data set [1] is Mus musculus. The experiment in a line: Anticonvulsant activity in Swiss albino Mus musculus (mouse) assessed as protection against maximal electroshock-induced seizures at 30 mg/kg, ip after 0.5 hr. Format: functional, organism-based. Details: dose 30 mg/kg. A general note: In the maximal electroshock model the usual endpoint is tonic extension of the hind limbs.
The subject of data set [2] is Rattus norvegicus. The experiment in a line: Anticonvulsant activity in Wistar Rattus norvegicus (rat) assessed as protection against maximal electroshock-induced seizures at 30 mg/kg, po after 4 hr. Format: functional.
For data set [3], the system named is Rattus norvegicus. Nature of the data set: Neurotoxicity in Wistar Rattus norvegicus (rat) assessed as minimal motor impairment at 30 mg/kg, po after 0.25 to 4 hr by rotorod test. Format: toxicity, organism-based. Details: dose 30 mg/kg, route oral. The conditions noted are these: in vivo.
Data set [4] has as its system Rattus norvegicus. Nature of the data set: Anticonvulsant activity in Wistar Rattus norvegicus (rat) assessed as protection against maximal electroshock-induced seizures at 30 mg/kg, po after 2 hr. It is filed as functional.
The test system of data set [5] is Rattus norvegicus. Nature of the data set: Anticonvulsant activity in Wistar Rattus norvegicus (rat) assessed as protection against maximal electroshock-induced seizures at 30 mg/kg, po after 1 hr. It is filed as functional.
Data set [6] relates to Rattus norvegicus. Nature of the data set: Anticonvulsant activity in Wistar Rattus norvegicus (rat) assessed as protection against maximal electroshock-induced seizures at 30 mg/kg, po after 0.5 hr. It is filed as functional.
The subject of data set [7] is Rattus norvegicus. Nature of the data set: Anticonvulsant activity in Wistar Rattus norvegicus (rat) assessed as protection against maximal electroshock-induced seizures at 30 mg/kg, po after 0.25 hr. Format: functional.
Data set [8] concerns Mus musculus. The experiment in a line: Neurotoxicity in Swiss albino Mus musculus (mouse) assessed as minimal motor impairment at 100 mg/kg, ip after 4 hr by rotorod test. Details: dose 100 mg/kg, route intraperitoneal. The conditions noted are these: in vivo. Format: toxicity, organism-based. (In general: Falling from the rotarod earlier than controls is read as motor impairment.)

Data set [9] has as its system Mus musculus. The experiment in a line: Neurotoxicity in Swiss albino Mus musculus (mouse) assessed as minimal motor impairment at 100 mg/kg, ip after 0.5 hr by rotorod test. It is filed as toxicity, organism-based. Also on record: dose 100 mg/kg, route intraperitoneal. The note with it: in vivo.
The test system of data set [10] is Mus musculus. The experiment in a line: Anticonvulsant activity in Swiss albino Mus musculus (mouse) assessed as protection against subcutaneous pentylenetetrazole-induced seizure at 300 mg/kg, ip after 4 hr. It is filed as functional, organism-based. Also on record: dose 300 mg/kg.
For data set [11], the system named is Mus musculus. Nature of the data set: Anticonvulsant activity in Swiss albino Mus musculus (mouse) assessed as protection against subcutaneous pentylenetetrazole-induced seizure at 300 mg/kg, ip after 0.5 hr. It is filed as functional, organism-based. Also on record: dose 300 mg/kg.
Data set [12] has as its system Mus musculus. The experiment in a line: Anticonvulsant activity in Swiss albino Mus musculus (mouse) assessed as protection against maximal electroshock-induced seizures at 30 mg/kg, ip after 4 hr. Also on record: dose 30 mg/kg. It is filed as functional, organism-based.
The test system of data set [13] is Mus musculus. The experiment in a line: Anticonvulsant activity in Swiss albino Mus musculus (mouse) assessed as protection against maximal electroshock-induced seizures at 100 mg/kg, ip after 0.5 hr. Format: functional, organism-based. Details: dose 100 mg/kg.
Data set [14] has as its system Mus musculus. The experiment in a line: Neurotoxicity in Swiss albino Mus musculus (mouse) assessed as minimal motor impairment at 300 mg/kg, ip after 4 hr by rotorod test. Format: toxicity, organism-based. Details: dose 300 mg/kg, route intraperitoneal. The conditions noted are these: in vivo.
Data set [15] deals with Mus musculus. The experiment in a line: Neurotoxicity in Swiss albino Mus musculus (mouse) assessed as minimal motor impairment at 300 mg/kg, ip after 0.5 hr by rotorod test. The conditions noted are these: in vivo. Details: dose 300 mg/kg, route intraperitoneal. Format: toxicity, organism-based.
For data set [16], the system named is Mus musculus. Nature of the data set: Anticonvulsant activity in Swiss albino Mus musculus (mouse) assessed as protection against subcutaneous pentylenetetrazole-induced seizure at 30 to 300 mg/kg, ip after 0.5 hr. Format: functional, organism-based.
Data set [17] relates to Mus musculus. Nature of the data set: Anticonvulsant activity in Swiss albino Mus musculus (mouse) assessed as protection against maximal electroshock-induced seizures at 300 mg/kg, ip after 4 hr. It is filed as functional, organism-based. Also on record: dose 300 mg/kg.

Activity calls are given as the source filed them. The rule behind the calls is not given here.

On to `O=C1NC(=O)C(c2ccccc2)(c2ccccc2)N1` [PHENYTOIN], for which the outcome in [1] and in data set [12] was Active. Further, the Activity in data set [2] was 75%; in [3] it was “Non-toxic”; in data set [4], 75%; in data set [5], 75%; in [6], 100%; in [7] it was 25%. The Activity result in data set [8] and in data set [9] was “Toxic” in each case. The outcome in [10] and in [11] was inactive.
For the molecule `Cc1ccc(C2CC(c3ccccc3)=NN2C(=O)c2ccc(-n3c(C)nc4c(Br)cc(Br)cc4c3=O)cc2)cc1` (centres undefined), the result in data set [13], in data set [10], in data set [16] and in data set [17] was Active. In addition, the Activity in [2] is recorded as 75%; in [3], “Non-toxic”; in [4] it was 75%; in data set [5], 50%; in data set [6] it was 50%; in [7] it was 25%. Further, the Activity entry in data set [14] is “Toxic”; in data set [15], “Non-toxic”.
